Measured values: US20100298249A1, “PHARMACEUTICAL OR COSMETIC PREPARATIONS FOR TOPICAL AND/OR PARENTERAL APPLICATION, PREPARATION METHODS THEREOF AND USE OF SAME” (priority 2007, published 2010)

Legend:
[1] = humans; cited from earlier work
[2] = target: hyaluronidase of bovine origin (Bos taurus, UniProt Q2YDK3); assay: Inhibitory effect on hyaluronidase activity of bovine origin (turbidimetry of nonhydrolysed hyaluronic acid); assay type: biochemical; settings: various concentrations, FIG. 1
Protocol: Determination of the IC50 of GLZ, with or without Preincubation at 37° C.: GLZ, at various concentrations, is or is not preincubated for 20 minutes at 37° C. in the presence of the enzyme. The enzyme reaction is triggered by adding the hyaluronic acid solution (time T0). After incubation for 20 minutes, the nonhydrolysed hyaluronic acid is precipitated by adding acidic bovine albumin solution. In order to verify that the preincubation step has no effect on the stability of the hyaluronidase, an aliquot of a solution of the enzyme is placed at 37° C. for 20 minutes. Another aliquot is conserved in an ice bath for 19 minutes, and is then incubated at 37° C. for 1 minute. A solution of hyaluronic acid is then added to each aliquot (T0). After incubation for 15, 30 or 45 minutes, the nonhydrolysed hyaluronic acid is precipitated by addition of acidic bovine albumin solution. After the precipitation step, the turbidimetry of the solutions is determined on a spectrophotometer at a wavelength of 600 nm. The optical density (OD) of these solutions is subtracted from the OD of a control solution of hyaluronic acid (of the same concentration) not hydrolysed by the enzyme. This difference in OD, which is inversely proportional to the concentration of hyaluronic acid, is used to measure the activity of the hyaluronidase.

Sequence of hyaluronidase of bovine origin (Q2YDK3 entry or part of it): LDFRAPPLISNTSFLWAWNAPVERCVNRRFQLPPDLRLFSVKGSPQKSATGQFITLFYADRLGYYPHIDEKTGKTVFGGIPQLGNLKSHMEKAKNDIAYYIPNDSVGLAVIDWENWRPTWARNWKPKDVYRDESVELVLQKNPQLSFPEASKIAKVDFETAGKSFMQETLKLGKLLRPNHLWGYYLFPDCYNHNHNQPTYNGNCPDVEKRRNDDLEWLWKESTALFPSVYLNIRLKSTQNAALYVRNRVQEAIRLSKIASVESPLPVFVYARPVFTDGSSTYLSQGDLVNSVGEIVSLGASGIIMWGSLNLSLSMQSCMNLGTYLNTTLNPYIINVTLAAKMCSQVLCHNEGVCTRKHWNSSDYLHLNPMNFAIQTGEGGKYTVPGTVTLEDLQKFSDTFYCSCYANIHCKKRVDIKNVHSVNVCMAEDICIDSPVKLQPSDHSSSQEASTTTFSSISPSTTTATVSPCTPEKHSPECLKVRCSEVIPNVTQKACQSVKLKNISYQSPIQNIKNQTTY

Row | inhibitory effect on the bovine hyaluronidase [2] | Compound | excretion in the urine [1]
1 |  | hyaluronic acid | less than 1 % of total clearance
2 | dose-dependent | CC1(C)[C@@H](O[C@H]2O[C@H](C(=O)O)[C@@H](O)[C@H](O)[C@H]2O[C@@H]2O[C@H](C(=O)O)[C@@H](O)[C@H](O)[C@H]2O)CC[C@]2(C)[C@H]3C(=O)C=C4[C@@H]5C[C@@](C)(C(=O)O)CC[C@]5(C)CC[C@@]4(C)[C@]3(C)CC[C@@H]12 [GLZ, Glycyrrhizin] | 
